Four compounds from patent US9108943B2, “Photoreactive benzamide probes for histone deacetylase 2” (THE BOARD OF TRUSTEES OF THE UNIVERSITY OF ILLINOIS, priority 2013, dated 2015) can be followed below.

One experiment has as its target T1, recombinant human HDAC2 (Homo sapiens, UniProt Q92769).
T1 construct: purchased BPS Bioscience
The experiment can be described thus: Fluorogenic HDAC inhibition assay, HDAC2 (Boc-L-Lys(Ac)-AMC substrate). The format is biochemical. The conditions noted are these: for IC50: maximum preincubation time 24 h. On the procedure: (§1) 10 μL of the enzyme stock was added to 30 μL of the probes and preincubated for different preincubation times.

For experiment [1], the target named is recombinant His-tagged HDAC2 (Homo sapiens, UniProt Q92769). The experiment can be described thus: Photoaffinity labeling (photocrosslinking) of HDAC2 with TSA competition, biotin tag, streptavidin-HRP western blot. The format is binding. The conditions noted are these: probe 25 μM, HDAC2 1.25 μM, Trichostatin A 125 μM (5-fold molar excess), 24 h, 254 nm UV.
recombinant His-tagged HDAC2, sequence (Q92769 whole entry): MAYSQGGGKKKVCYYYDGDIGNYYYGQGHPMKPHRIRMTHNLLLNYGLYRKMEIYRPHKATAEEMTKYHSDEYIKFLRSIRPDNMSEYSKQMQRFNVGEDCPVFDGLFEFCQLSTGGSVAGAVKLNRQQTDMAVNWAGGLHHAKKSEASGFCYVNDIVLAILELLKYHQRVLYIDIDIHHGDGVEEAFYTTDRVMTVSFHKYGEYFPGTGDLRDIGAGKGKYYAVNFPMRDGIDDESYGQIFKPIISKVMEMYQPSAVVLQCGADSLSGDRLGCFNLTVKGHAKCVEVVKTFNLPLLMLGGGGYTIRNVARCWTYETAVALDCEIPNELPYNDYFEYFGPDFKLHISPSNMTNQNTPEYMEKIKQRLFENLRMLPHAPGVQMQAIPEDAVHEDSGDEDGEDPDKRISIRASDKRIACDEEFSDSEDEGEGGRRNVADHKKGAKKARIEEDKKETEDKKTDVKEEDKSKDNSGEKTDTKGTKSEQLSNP
Procedure: Photoaffinity labeling studies were conducted with the probes using commercially available recombinant His-tagged HDAC2. […] The loading was confirmed by using nickel-HRP, which recognized the His-tag of the recombinant HDAC2 protein.
500 μM of DBCO-PEG4-biotin conjugate (Click Chemistry tools) in photolabeling buffer was added to initiate the [3+2] cycloaddition reaction with HDAC2-probe adduct. The cycloaddition reaction was carried out for 3 h at room temperature. Western blotting was done with 1.5 ug of purified protein with 5× loading buffer containing 10% SDS, 0.05% bromophenol blue, 50% glycerol, and β-mercaptoethanol. […] After electrophoresis, protein was transferred to a polyvinylidiene difluoride membrane (Iblot-Invitrogen). The membrane was incubated for 12 h with 5% albumin fraction V (Sigma-aldrich) in 1× Tris based saline supplemented with 0.1% Tween-20 (TBS-T). The membrane was washed three times with TBST and then incubated with Ni-HRP (1:2000) in TBST for 1 h under room temperature with slight agitation. After three washes in TBS-T, the chemilumiscent signal was detected using the enhanced chemiluminescence (ECL) kit from Pierce (Pierce Biotechnology, Rockford, Ill.). […] After three washes in PBST and water, the chemilumiscent signal was detected using the enhanced chemiluminescence (ECL) kit from Pierce (Pierce Biotechnology, Rockford, Ill.).
In experiment [2] the target is T2, purified recombinant human HDAC8 from E. coli (Homo sapiens, UniProt Q9BY41).
T2 construct: made in house; host or cells: E. coli
T2 sequence (Q9BY41 1-377): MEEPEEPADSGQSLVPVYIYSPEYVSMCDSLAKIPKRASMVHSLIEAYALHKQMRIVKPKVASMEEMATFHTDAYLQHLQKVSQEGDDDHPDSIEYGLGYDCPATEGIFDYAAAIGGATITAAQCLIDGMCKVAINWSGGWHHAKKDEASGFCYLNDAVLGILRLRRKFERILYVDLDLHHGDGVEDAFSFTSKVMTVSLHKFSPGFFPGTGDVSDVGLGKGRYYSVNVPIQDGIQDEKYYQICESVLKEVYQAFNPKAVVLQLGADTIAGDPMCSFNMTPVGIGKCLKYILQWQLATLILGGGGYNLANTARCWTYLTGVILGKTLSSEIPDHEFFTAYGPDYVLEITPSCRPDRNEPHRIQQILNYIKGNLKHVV
In words: Fluorogenic HDAC inhibition assay, HDAC8 (Fluor de Lys substrate). The format is biochemical. Particulars: 10 μM inhibitor, preincubation 3 h. As to the method: as §1

T1 sequence (Q92769 whole entry): as the sequence (Q92769 whole entry) above

Regarding `[N-]=[N+]=NCCOc1ccc(C(=O)Nc2cc(-c3ccccc3)ccc2N)cc1N=[N+]=[N-]` [probe 1e, N-(4-amino-[1,1′-biphenyl]-3-yl)-3-azido-4-(2-azidoethoxy)benzamide], the half-maximal inhibitory concentration (IC50) on recombinant human HDAC2 worked out at 830 nM. For the same compound, the “increase in inhibition of HDAC2 upon preincubation (IC50 ratio)” value at recombinant human HDAC2 (preincubation 24 h vs 5 min) was 41 fold.
Take `[N-]=[N+]=NCCOc1ccc(C(=O)Nc2cc(-c3cccs3)ccc2N)cc1N=[N+]=[N-]` [probe 1f, N-(2-amino-5-(thiophen-2-yl)phenyl)-3-azido-4-(2-azidoethoxy)benzamide]: the concentration for half-maximal inhibition (IC50) at recombinant human HDAC2 worked out at 750 nM.
As for `[N-]=[N+]=NCCC(=O)Nc1ccc(C(=O)Nc2cc(N=[N+]=[N-])ccc2N)cc1` [probe 1g, N-(2-amino-5-azidophenyl)-4-(3-azidopropanamido)benzamide], the “decrease in biotinylation of HDAC2 in the presence of competing ligand” value in experiment [1] is reported as “slightly less pronounced”.
`[N-]=[N+]=Nc1cccc(COC(=O)NCc2ccc(C(=O)Nc3cc(-c4ccccc4)ccc3N)cc2)c1` [probe 2a, 3-azidobenzyl 4-((4-amino-[1,1′-biphenyl]-3-yl)carbamoyl)benzylcarbamate]: the entries for the “inhibition of HDAC8” value in experiment [2] and in experiment [2] (10 µM) were “inactive” and “did not inhibit”, respectively.
